Data on one substance can be found in patent US20240018470A1, “METHOD OF MANIPULATING PLURIPOTENCY IN CELLS” (YALE UNIVERSITY, priority 2022, published 2024).

Assay type in all cases: in vivo, Xenopus tropicalis
In series [1] the test system is Xenopus embryos. Description: Gastrulation scoring (incomplete blastopore closure) in treated or kcnh6-depleted embryos. The note with it: kcnh6 depletion, injected at one-cell stage. On the procedure: All injections of Xenopus embryos were performed at the one-cell stage using a fine glass needle and Picospritzer system. A kcnh6 translation blocking (kcnh6 MO, 5′-[…]-3′, SEQ ID NO:1) and a scrambled morpholino oligonucleotide were obtained from Gene Tools LLC and injected at 10 ng to deplete kcnh6 or as a control, respectively. CRISPR sgRNAs for kcnh6 targeted either exon 3 or exon 4 based on the v7.1 gene model of the X. tropicalis genome (CRex3: 5′-[…]-3′, SEQ ID NO:2 and CRex4: 5′-[…]-3′, SEQ ID NO:3). CRISPR sgRNAs for cacna1c (5′-[…]-3′, SEQ ID NO:4) and cacna1g (5′-[…]-3′, SEQ ID NO:5) were designed from the v7.1 model of the Xenopus tropicalis genome. For F0 CRISPR knockdown, embryos were injected with 1.5 ng Cas9 Protein (PNA-Bio) and 400 pg of targeting sgRNA and raised to desired stages. […] Full length human KCNH6 (NM 030779.3; cloned in pCS107), GCaMP6 (subcloned in pCSDest) and mCherry cDNAs (Addgene #34935; in pCS2+), were used to generate capped mRNAs in vitro by first linearizing with appropriate restriction enzymes and then transcribing with the mMessage machine kit (Ambion). mRNAs were injected at 3 pg (human KCNH6), 150 pg (GCaMP6) and 150 pg (mCherry) per embryo. Embryos were raised at 21° C. to allow time for sufficient expression levels at blastula/gastrula stages.
(§1) Normal embryonic medium is 1/9× modified Ringer's (MR) containing 11 mM NaCl, 0.2 mM KCl, 0.2 mM CaCl2), 0.1 mM Mg2Cl and 0.55 mM HEPES. To allow Ergtoxin to penetrate the embryos, the present study manually removed the vitelline envelope of stage 8 embryos and incubated embryos in 1/9×MR containing 50 nM Ergtoxin (Alomone STE-450) until stage 12. Embryos were then transferred back into 1/9×MR lacking Ergtoxin to develop until stage 45 in order to score organ situs. Barium chloride was applied into the medium at 20 mM and embryos were thoroughly rinsed in 1/9×MR after each incubation period for further development in Ba2+-free medium. For extracellular K^+ manipulations, the KCl concentration in 1/9×MR was modified from 0.2 mM (normal) to 20 mM (high) or 0 mM (low). The ionophore valinomycin (ACROS) and L-type VGCC blocker Nifedipine (ACROS) were diluted in DMSO as stock solutions and applied to embryos in 1/9×MR at 2 nM and 10 μM respectively. Treatments performed during gastrulation were applied from stage 8 through stage 12, and embryos were then rinsed thoroughly and returned into 1/9×MR. For rapamycin, the present study created a standard stock solution of 50 mg/ml in DMSO. The stock solution was diluted 1:2500 in the appropriate embryonic media (final 20 μg/ml). Embryos were treated at stage 7 and then fixed at stage 11 for in situ hybridization.
(§2) In experiments where embryos were evaluated for phenotypes and scored (gastrulation, left-right patterning, in situ hybridizations) the present study carried out three to five biological replicates and Fisher's exact test to evaluate statistical significance. The animal cap experiment was performed twice with a total score of four to eight animal caps per experiment. For the calcium transient analyses, data was collected from three to five embryos in each experiment in three independent experiments, and statistical analyses on GCaMP/mCherry fluorescence intensity as well as Ca^2+ transient area were performed using student's t-test. For whole cell electrophysiological recordings, three to five embryos (two cells each) were examined for their membrane potential and statistical significance was tested by student's t-test. Graphs were designed using GraphPad Prism software. Models were created with BioRender.com.

Series [2] deals with Xenopus embryos. Description: Organ situs (left-right patterning) scoring in stage 45 tadpoles. To be noted: kcnh6 depletion, injected at one-cell stage. On the procedure: Stage 45 Xenopus embryos were paralyzed with benzocaine or tricaine and scored with a light stereomicroscope. Cardiac looping was determined by position of the outflow tract; D-loop: rightward, L-loop: leftward; A-loop: midline. Normal intestinal looping was scored as counter-clockwise rotation of the gut, while abnormal intestinal looping was scored as completely inverse gut rotation (clockwise) or complete lack of looping (un-looped). While a completely inverted gut rotation is clearly an abnormality of LR patterning, an unlooped gut is less clear so the present study only considered an unlooped gut as abnormal situs when combined with abnormal placement (left-sided or midline) of the gall bladder. To quantify total abnormal organ situs, each tadpole was counted only once, regardless of whether multiple organs were affected.
as §1, §2

Series [3] concerns animal pole cells (prospective ectoderm). Description: Intracellular Vm recordings in animal pole cells. The note with it: stage 10 (gastrulation onset), animal pole, MO injected embryos. The source says: For recordings, devitellinized, stage 10 kcnh6 or control MO injected embryos were mounted into non-toxic clay with their animal pole exposed and covered with 1/9×MR. To investigate the resting potential, animal pole cells were impaled with a high-impedance (˜70 Me), sharp microelectrode filled with 3 M KCl for intracellular recordings. The recordings were made using an Axon 200B amplifier and digitized using a Digidata 1320 digitizer. Jclamp software for Windows was used in current clamp mode. All electrodes were zeroed just before entry into the cells.
For the series of intracellular recordings in high K^+ and choline treated embryos, stage 8-9 embryos were impaled similarly with an electrode of […]. These recordings were made using a HEKA EPC10 amplifier. The present study used HEKA PatchMaster v2x67 software for Windows. […]
In experiments where embryos were evaluated for phenotypes and scored (gastrulation, left-right patterning, in situ hybridizations) the present study carried out three to five biological replicates and Fisher's exact test to evaluate statistical significance. […] For the calcium transient analyses, data was collected from three to five embryos in each experiment in three independent experiments, and statistical analyses on GCaMP/mCherry fluorescence intensity as well as Ca^2+ transient area were performed using student's t-test. […]

For series [4], the system named is animal pole of stage 10 embryos. Put plainly: Calcium imaging (GCaMP6/mCherry) of the animal pole. The note with it: stage 10, 20 s time lapse. As for the experimental part:
GCaMP6 and mCherry mRNAs were mixed and injected into embryos at the one-cell stage. Half of these embryos were then injected with kcnh6 MO and the other half with control MO, still at the one-cell stage. Embryos were transferred at stage 10 into the round wells of a press-to-seal silicone isolator (Sigma 53685) mounted between two cover slips in 2% Methylcellulose- 1/9×MR. GcaMP6 and mCherry fluorescence was then captured for 20s (1 frame per second) via time lapse in the whole animal pole of each embryo with a 20× objective of an LSM710 confocal microscope using identical acquisition settings across Control MO and kcnh6 MO embryos. […] However, all embryos did display transient increases in GcaMP6 fluorescence, varying in intensity and spreading to multiple cells. The frames of each recording were sorted to identify the calcium transient peak (in area), and GcAMP6 fluorescence intensity was quantified at peak as a ratio to mCherry in mCherry+ cells. The maximum Ca′ transient area was calculated by demarcating in Fuji the GCaMP6(+) vs GcaMP6(−) area of the animal pole at transient peak. […]
In experiments where embryos were evaluated for phenotypes and scored (gastrulation, left-right patterning, in situ hybridizations) the present study carried out three to five biological replicates and Fisher's exact test to evaluate statistical significance. […]

As for “kcnh6 MO: kcnh6 translation blocking morpholino oligonucleotide, 5′-GGTCCTCGAAGTTTAGGATAAACAT-3′, SEQ ID NO:1 (all phosphorodiamidate morpholino (PMO))”, the “inability to complete gastrulation” value in series [1] is 31±3%. In series [2], this substance showed an abnormal organ situs of 91±7%. This substance also registered a Vm in series [3] of −21.8±4.6 mV. Besides, in series [4], the “animal pole area simultaneously affected by Ca^2+ transients, average” value came out at 71±11% and the “animal pole area with simultaneous calcium increases in most embryos” value is recorded as above 90%.
